Values after ≈ are worked out from the molar mass of the structure shown. Active and inactive are the calls of the source. The rule behind the calls is not given here. Non-standard residues stand in square brackets, D forms with d. Residues, ends and D or L forms follow the SMILES beside them. Gly(N(CH2)2(3-indolyl)) = O=C(O)CNCCc1c[nH]c2ccccc12; Nspe = C[C@H](NCC(=O)O)c1ccccc1; Nlys = NCCCCNCC(=O)O
Legend:
[1] = Hemolytic activity in male Sprague-Dawley rat erythrocytes at 25 uM incubated for 1 hr by absorbance based method relative to control; assay type: toxicity, cell-based, Erythrocyte; conditions: read-out: Activity
[2] = Hemolytic activity in male Sprague-Dawley rat erythrocytes at 50 uM incubated for 1 hr by absorbance based method relative to control; assay type: toxicity, cell-based, Erythrocyte; conditions: read-out: Activity
[3] = test system: Erythrocyte; assay: Hemolytic activity in male Sprague-Dawley rat erythrocytes assessed as concentration required for 10% hemolysis incubated for 1 hr by absorbance based method; assay type: toxicity, cell-based
[4] = Selectivity index, ratio of HC10 for hemolytic activity in male Sprague-Dawley rat erythrocytes to MIC for antibacterial activity against Escherichia coli ATCC 25922; assay type: toxicity; conditions: read-out: Selectivity Index
[5] = test system: HaCaT; assay: Cytotoxicity against human HaCaT cells assessed as cell killing incubated for 24 hrs by MTS assay; assay type: toxicity, cell-based
[6] = test system: MRC5; assay: Cytotoxicity against human MRC5 cells assessed as cell killing incubated for 24 hrs by MTS assay; assay type: toxicity, cell-based; conditions: mrc5, 24 h
[7] = test system: HEK293; assay: Cytotoxicity against HEK293 cells assessed as cell killing incubated for 24 hrs by MTS assay; assay type: toxicity, cell-based; conditions: human, hek293, 24 h
[8] = test system: Escherichia coli; assay: Antibacterial activity against carbapenem-resistant Escherichia coli NMS11035 harboring extended-spectrum beta-lactamase assessed as inhibition of bacterial growth incubated for 24 hrs by broth dilution method; assay type: functional
[9] = test system: Klebsiella pneumoniae; assay: Antibacterial activity against carbapenem-resistant Klebsiella pneumoniae NMS118 harboring extended-spectrum beta-lactamase assessed as inhibition of bacterial growth incubated for 24 hrs by broth dilution method; assay type: functional
[10] = test system: Cell membrane; assay: Disruption of inner membrane in Escherichia coli ATCC 25922 assessed as increase in absorbance incubated for 1 hr by ONPG assay; assay type: cell membranes; conditions: dose 0-25 µM
[11] = test system: Escherichia coli; assay: Induction of lipid peroxidation in Escherichia coli ATCC 25922 assessed as increase in green fluorescence at 12.5 uM incubated for 1 hrs by BODIPY 581/591 C11 dye based confocal microscopic analysis; assay type: functional, organism-based
[12] = test system: Escherichia coli; assay: Induction of lipid peroxidation in Escherichia coli ATCC 25922 at 12.5 uM incubated for 1 hrs by BODIPY 581/591 C11 dye based flow cytometry analysis; assay type: functional, organism-based
[13] = Cytotoxicity against mouse RAW264.7 cells assessed as cell viability at 10 uM incubated for 24 hrs by […] relative to control; assay type: toxicity, cell-based; conditions: read-out: Activity
[14] = test system: RAW264.7; assay: Antiinflammatory activity in LPS-stimulated mouse RAW264.7 cells assessed as reduction in IL-1beta production at 10 uM incubated for 16 hrs by ELISA relative to control; assay type: functional; set-up: scale not given: the % may be the effect or the level left
[15] = test system: RAW264.7; assay: Antiinflammatory activity in LPS-stimulated mouse RAW264.7 cells assessed as reduction in nitrite production at 10 uM incubated for 16 hrs by ELISA relative to control; assay type: functional; set-up: scale not given: the % may be the effect or the level left
[16] = test system: HEK-Blue hTLR7; assay: Inhibition of TLR4-mediated inflammatory signaling in LPS-stimulated HEK-Blue […] cells assessed as reduction in SEAP activity at 10 uM preincubated for 1 hr followed by LPS stimulation and measured after 16 hrs by ELISA relative to control; assay type: cell-based; conditions: Homo sapiens, time 17.0 hrs
[17] = test system: HEK293; assay: Cytotoxicity against HEK293 cells assessed as reduction in cell viability at 3.1 to 25 uM incubated for 24 hrs by WST-8 assay; assay type: toxicity, cell-based; conditions: human, hek293, 24 h, dose 3.1-25 µM
[18] = Toxicity in female ICR mouse assessed as effect on creatinine level in serum at 5 mg/kg, ip administered four doses for 12 hrs and measured 24 hrs post last dose; assay type: organism-based; conditions: in vivo, 36 h
[19] = Toxicity in female ICR mouse assessed as effect on AST level in serum at 5 mg/kg, ip administered four doses for 12 hrs and measured 24 hrs post last dose; assay type: organism-based; conditions: in vivo, 36 h
[20] = Toxicity in female ICR mouse assessed as effect on ALT level in serum at 5 mg/kg, ip administered four doses for 12 hrs and measured 24 hrs post last dose; assay type: organism-based; conditions: in vivo, 36 h
[21] = Toxicity in female ICR mouse assessed as lymphocyte infiltration in kidney at 5 mg/kg, ip administered four doses for 12 hrs and measured 24 hrs post last dose by H and E staining based light microscopic analysis; assay type: organism-based; conditions: in vivo, 36 h
[22] = Toxicity in female ICR mouse assessed as dilatation of renal vein in kidney at 5 mg/kg, ip administered four doses for 12 hrs and measured 24 hrs post last dose by H and E staining based light microscopic analysis; assay type: organism-based; conditions: in vivo, 36 h
[23] = Acute toxicity in female ICR mouse assessed as animal survival at 5 mg/kg, ip administered four doses for 12 hrs; assay type: organism-based; conditions: in vivo
[24] = test system: Escherichia coli; assay: Antibacterial activity against Escherichia coli K1 infected in female ICR mouse model of septic shock assessed as increase in animal survival at 5 mg/kg, ip pretreated for 1 hr followed by bacteria addition and further treated with 3 doses of compound every 4 hrs and measured every hour for 36 hrs and every 6 hrs for 96 hrs; assay type: functional
[25] = test system: Escherichia coli; assay: (§1) Antibacterial activity against Escherichia coli K1 infected in female ICR mouse model of septic shock assessed as reduction in endotoxin level at 5 mg/kg, ip pretreated for 1 hr followed by bacteria addition and further treated with 3 doses of compound every 4 hrs relative to control; assay type: functional; set-up: scale not given: the % may be the effect or the level left; conditions: time 9 hrs
[26] = test system: Escherichia coli; assay: Antibacterial activity against Escherichia coli K1 infected in female ICR mouse model of septic shock assessed as reduction in BUN level in serum at 5 mg/kg, ip pretreated for 1 hr followed by bacteria addition and further treated with 3 doses of compound every 4 hrs relative to control; assay type: functional; set-up: scale not given: the % may be the effect or the level left; conditions: time 9 hrs
[27] = Toxicity in female ICR mouse infected with Escherichia coli K1 assessed as lung injury at 5 mg/kg, ip pretreated for 1 hr followed by bacteria addition and further treated with 3 doses of compound every 4 hrs; assay type: organism-based; conditions: in vivo, 9 h
[28] = test system: Escherichia coli; assay: as §1, with “pulmonary congestion in lung” for “endotoxin level”, “by H and E staining based light microscopic analysis” for “relative to control”; assay type: functional, organism-based; conditions: time 9.0 hrs

C[C@@H](c1ccccc1)N(CC(=O)N(CCCCN)CC(=O)N(CCc1c[nH]c2ccccc12)CC(=O)N(CCc1c[nH]c2ccccc12)CC(N)=O)C(=O)CN(CCCCN)C(=O)CN(CCCCN)C(=O)CN(C(=O)CN(C(=O)CN(CCCCN)C(=O)CN(C(=O)CN(C(=O)CN(CCCCN)C(=O)[C@H](Cc1c[nH]cn1)NC(=O)CNC(=O)CN)[C@@H](C)c1ccccc1)[C@@H](C)c1ccccc1)[C@@H](C)c1ccccc1)[C@@H](C)c1ccccc1 (H-GGH[Nlys][Nspe][Nspe][Nlys][Nspe][Nspe][Nlys][Nlys][Nspe][Nlys][Gly(N(CH2)2(3-indolyl))][Gly(N(CH2)2(3-indolyl))]-NH2)
hemolysis at 1 h, 25 µM [1]: 3.13% | hemolysis at 1 h, 50 µM [2]: 4.83% | HC10 [3]: > 100 µM | selectivity ratio [4]: > 15.8 | LC50 [5]: 110 µM | LC50 [6]: 187 µM | LC50 [7]: 39.5 µM | MIC [8]: 12.5 µM (≈ 26.4 µg/mL) | MIC [9]: > 25 µM | Activity [10]: Dose-Dependent Effect | Activity [11]: Active | Activity [12]: Active | viability at 24 h, 10 µM [13]: 94.5% | Activity [14]: 36% | Activity [15]: 80.9% | inhibition [16]: 49.7% | Activity [17]: Non-Toxic | Activity [18]: Non-Toxic | Activity [19]: Non-Toxic | Activity [20]: Non-Toxic | Activity [21]: Non-Toxic | Activity [22]: Non-Toxic | Survival [23]: > 96 h | survival at 5 mg/kg [24]: 60% | Activity [25]: 44.3% | Activity [26]: 40.3% | Activity [27]: Non-Toxic | Activity [28]: Active
